Columns and labels:
[1] = Cytotoxicity assay in MT-4 cells; assay type: cell-based; conditions: human; uninfected MT-4 cells, 5 days incubation, Cell Titer Glo; read-out: MT4 CC50
In short: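 Viability read by Cell Titer Glo luminescence after 5 days at 37 °C. MT-4 cells, not infected, in complete RPMI (10% FBS), received compound dilution series. Base cytotoxicity set with […] puromycin.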

HIV-1 (IIIB) = assay: Antiviral assay in MT-4 cells; assay type: cell-based; conditions: Human immunodeficiency virus 1, MT4, 120 h; HIV-1 IIIB in MT-4 cells, 5 days incubation, Cell Titer Glo; read-out: MT4 EC50
In short: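 Read-out: CellTiter-Glo luminescence after 5 days at 37 °C, reflecting survival of MT-4 cells infected with HIV-1 IIIB (1:250 fresh stock dilution) versus mock-infected. Compounds serially diluted into RPMI with 10% FBS; AZT at 5 μM served as positive control.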

Row | Compound | CC50 at 5 days [1] [µM] | EC50 (HIV-1 (IIIB)) [µM]
1 | COCCOCCOCCOCCOCCOCCOCCOC(=O)Oc1c2n(cc(C(=O)NCc3ccc(F)cc3F)c1=O)[C@@H]1CN(C2=O)[C@@H](C)CC[C@]12CC(C)=NO2 [Example 162, (3′S,5S,7′R)-10′-((2,4-difluorobenzyl)carbamoyl)-3,3′-dimethyl-1′,11′-dioxo-1′,4′,5′,11′-tetrahydro-3′H,4H,7′H-spiro[isoxazole-5,6′-[2,7]methanopyrido[1,2-a][1,4]diazonin]-12′-yl (2,5,8,11,14,17,20-heptaoxadocosan-22-yl) carbonate] | 27.8 | 0.00242
2 | COCCOCCOCCOCCOCCOCCOCCOC(=O)Oc1c2n(cc(C(=O)NCc3ccc(F)cc3F)c1=O)[C@@H]1CN(C2=O)[C@@H](C)CC[C@]12CC(OC)=NO2 [Example 163, (3′S,5S,7′R)-10′-((2,4-difluorobenzyl)carbamoyl)-3-methoxy-3′-methyl-1′,11′-dioxo-1′,4′,5′,11′-tetrahydro-3′H,4H,7′H-spiro[isoxazole-5,6′-[2,7]methanopyrido[1,2-a][1,4]diazonin]-12′-yl (2,5,8,11,14,17,20-heptaoxadocosan-22-yl) carbonate] | 37.6 | 0.00208
3 | CCOC(=O)OCOc1c2n(cc(C(=O)NCc3ccc(F)cc3F)c1=O)[C@@H]1CN(C2=O)[C@@H](C)CC[C@]12CC(OC)=NO2 [Example 173, (((3′S,5S,7′R)-10′-((2,4-difluorobenzyl)carbamoyl)-3-methoxy-3′-methyl-1′,11′-dioxo-1′,4′,5′,11′-tetrahydro-3′H,4H,7′H-spiro[isoxazole-5,6′-[2,7]methanopyrido[1,2-a][1,4]diazonin]-12′-yl)oxy)methyl ethyl carbonate] | 37.9 | 0.00475
4 | CCCOC(=O)OCOc1c2n(cc(C(=O)NCc3ccc(F)cc3F)c1=O)[C@@H]1CN(C2=O)[C@@H](C)CC[C@]12CC(C)=NO2 [Example 174, (((3′S,5S,7′R)-10′-((2,4-difluorobenzyl)carbamoyl)-3,3′-dimethyl-1′,11′-dioxo-1′,4′,5′,11′-tetrahydro-3′H,4H,7′H-spiro[isoxazole-5,6′-[2,7]methanopyrido[1,2-a][1,4]diazonin]-12′-yl)oxy)methyl propyl carbonate] | 18.1 | 0.00241
5 | CCCOC(=O)OCOc1c2n(cc(C(=O)NCc3ccc(F)cc3F)c1=O)[C@@H]1CN(C2=O)[C@@H](C)CC[C@]12CC(OC)=NO2 [Example 175, (((3′S,5S,7′R)-10′-((2,4-difluorobenzyl)carbamoyl)-3-methoxy-3′-methyl-1′,11′-dioxo-1′,4′,5′,11′-tetrahydro-3′H,4H,7′H-spiro[isoxazole-5,6′-[2,7]methanopyrido[1,2-a][1,4]diazonin]-12′-yl)oxy)methyl propyl carbonate] | 23.3 | 0.00206
6 | CCCCOC(=O)OCOc1c2n(cc(C(=O)NCc3ccc(F)cc3F)c1=O)[C@@H]1CN(C2=O)[C@@H](C)CC[C@]12CC(C)=NO2 [Example 176, butyl ((((3′S,5S,7′R)-10′-((2,4-difluorobenzyl)carbamoyl)-3,3′-dimethyl-1′,11′-dioxo-1′,4′,5′,11′-tetrahydro-3′H,4H,7′H-spiro[isoxazole-5,6′-[2,7]methanopyrido[1,2-a][1,4]diazonin]-12′-yl)oxy)methyl) carbonate] | 23 | 0.000284
7 | CCCCOC(=O)OCOc1c2n(cc(C(=O)NCc3ccc(F)cc3F)c1=O)[C@@H]1CN(C2=O)[C@@H](C)CC[C@]12CC(OC)=NO2 [Example 177, butyl ((((3′S,5S,7′R)-10′-((2,4-difluorobenzyl)carbamoyl)-3-methoxy-3′-methyl-1′,11′-dioxo-1′,4′,5′,11′-tetrahydro-3′H,4H,7′H-spiro[isoxazole-5,6′-[2,7]methanopyrido[1,2-a][1,4]diazonin]-12′-yl)oxy)methyl) carbonate] | 23.9 | 0.000366

— patent publication US20250122219A1 (priority 2023, published 2025)
